Experimental data from patent US5980913A, “Peptides having immunomodulatory activity” (Biochem Pharma, Inc., priority 1994, dated 1999).
Where a SMILES comes first, the peptide text is derived from it.

Legend:
[1] = test system: spleen cell subsets (cell surface antigens); assay: In vivo/ex vivo immunophenotyping in the spleen, mice treated 4 consecutive days; parameters: species or system C57BL/6 mice
Experimental: C57BL.backslash.6 mice are treated with 0, 50, 100, 200, and 300 mg/kg of drug (in saline) for 4 consecutive days. Blood is taken by cardiac puncture on day 5, and the lymphocytes are isolated from spleen in the following manner:
The spleen is aseptically removed and mashed by pressing against a steel strainer with a rubber plunger. The cell suspension is separated from the clumps by letting them settle at the bottom of the tube. The cell suspension is then separated on a Lymphocyte M layer and the interface is recovered and resuspended in media.
1. Immunophenotyping (blood and spleen)
Cell immunophenotyping is performed on blood and spleen. The following cell surface antigens are analyzed:
CD4 (T helper/inducer, binds class II-restricted T cells);
CD8 (cytotoxic T cells, CTL adhesion);
MAC-1 (monocyte/macrophage);
NK (natural killer cells);
CD45 (all leukocytes, protein tyrosine phosphatase).

Toxicity in vivo = conditions: animals treated with 50, 100, 200, and 300 mg/kg
Excerpt: peptide #1 (SEQ. ID NO:1) appears to be non-toxic.

NCCCC[C@H](N)C(=O)N[C@@H](CC(N)=O)C(=O)N1CCC[C@H]1C(=O)N[C@@H](Cc1ccc(O)cc1)C(=O)O [PEPTIDE #1, H-Lys-Asn-Pro-Tyr-OH] (H-KNPY-OH)
B cell subset, relative percentage ([1]; 50 mg/kg): 11.60 | CD4+ CD8+ cell subset, relative percentage ([1]; 50 mg/kg): 1.10 | CD4+ CD8- cell subset, relative percentage ([1]; 50 mg/kg): 38.30 | CD4+ CD11+ cell subset, relative percentage ([1]; 50 mg/kg): 0.17 | CD4+ CD11- cell subset, relative percentage ([1]; 50 mg/kg): 18.47 | CD4+ CD45+ cell subset, relative percentage ([1]; 50 mg/kg): 33.30 | CD4+ CD45- cell subset, relative percentage ([1]; 50 mg/kg): 6.10 | CD4- CD8+ cell subset, relative percentage ([1]; 50 mg/kg): 16.15 | CD4- CD8- cell subset, relative percentage ([1]; 50 mg/kg): 44.45 | CD4- CD11+ cell subset, relative percentage ([1]; 50 mg/kg): 1.20 | CD4- CD11- cell subset, relative percentage ([1]; 50 mg/kg): 80.17 | CD4- CD45+ cell subset, relative percentage ([1]; 50 mg/kg): 58.65 | CD4- CD45- cell subset, relative percentage ([1]; 50 mg/kg): 1.95 | CD8+ CD45+ cell subset, relative percentage ([1]; 50 mg/kg): 16.90 | CD8+ CD45- cell subset, relative percentage ([1]; 50 mg/kg): 0.10 | CD8- CD45+ cell subset, relative percentage ([1]; 50 mg/kg): 73.15 | CD8- CD45- cell subset, relative percentage ([1]; 50 mg/kg): 9.85 | CD45-8 cell subset, relative percentage ([1]; 50 mg/kg): 60.70 | CD45- Th1 cell subset, relative percentage ([1]; 50 mg/kg): 39.10 | NK+ CD3+ cell subset, relative percentage ([1]; 50 mg/kg): 4.70 | NK+ CD3- cell subset, relative percentage ([1]; 50 mg/kg): 7.47 | NK- CD3+ cell subset, relative percentage ([1]; 50 mg/kg): 42.80 | NK- CD3- cell subset, relative percentage ([1]; 50 mg/kg): 45.10 | B cell subset, relative percentage ([1]; 100 mg/kg): 14.97 | CD4+ CD8+ cell subset, relative percentage ([1]; 100 mg/kg): 2.40 | CD4+ CD8- cell subset, relative percentage ([1]; 100 mg/kg): 32.30 | CD4+ CD11+ cell subset, relative percentage ([1]; 100 mg/kg): 0.20 | CD4+ CD11- cell subset, relative percentage ([1]; 100 mg/kg): 18.23 | CD4+ CD45+ cell subset, relative percentage ([1]; 100 mg/kg): 30.90 | CD4+ CD45- cell subset, relative percentage ([1]; 100 mg/kg): 3.80 | CD4- CD8+ cell subset, relative percentage ([1]; 100 mg/kg): 12.45 | CD4- CD8- cell subset, relative percentage ([1]; 100 mg/kg): 52.85 | CD4- CD11+ cell subset, relative percentage ([1]; 100 mg/kg): 1.53 | CD4- CD11- cell subset, relative percentage ([1]; 100 mg/kg): 80.07 | CD4- CD45+ cell subset, relative percentage ([1]; 100 mg/kg): 61.45 | CD4- CD45- cell subset, relative percentage ([1]; 100 mg/kg): 3.85 | CD8+ CD45+ cell subset, relative percentage ([1]; 100 mg/kg): 14.25 | CD8+ CD45- cell subset, relative percentage ([1]; 100 mg/kg): 0.05 | CD8- CD45+ cell subset, relative percentage ([1]; 100 mg/kg): 76.35 | CD8- CD45- cell subset, relative percentage ([1]; 100 mg/kg): 9.35 | CD45-8 cell subset, relative percentage ([1]; 100 mg/kg): 65.55 | CD45- Th1 cell subset, relative percentage ([1]; 100 mg/kg): 34.55 | NK+ CD3+ cell subset, relative percentage ([1]; 100 mg/kg): 4.40 | NK+ CD3- cell subset, relative percentage ([1]; 100 mg/kg): 7.93 | NK- CD3+ cell subset, relative percentage ([1]; 100 mg/kg): 41.50 | NK- CD3- cell subset, relative percentage ([1]; 100 mg/kg): 46.20 | B cell subset, relative percentage ([1]; 200 mg/kg): 16.33 | CD4+ CD8+ cell subset, relative percentage ([1]; 200 mg/kg): 2.27 | CD4+ CD8- cell subset, relative percentage ([1]; 200 mg/kg): 29.50 | CD4+ CD11+ cell subset, relative percentage ([1]; 200 mg/kg): 0.20 | CD4+ CD11- cell subset, relative percentage ([1]; 200 mg/kg): 20.03 | CD4+ CD45+ cell subset, relative percentage ([1]; 200 mg/kg): 27.98 | CD4+ CD45- cell subset, relative percentage ([1]; 200 mg/kg): 3.77 | CD4- CD8+ cell subset, relative percentage ([1]; 200 mg/kg): 12.49 | CD4- CD8- cell subset, relative percentage ([1]; 200 mg/kg): 40.94 | CD4- CD11+ cell subset, relative percentage ([1]; 200 mg/kg): 1.53 | CD4- CD11- cell subset, relative percentage ([1]; 200 mg/kg): 78.27 | CD4- CD45+ cell subset, relative percentage ([1]; 200 mg/kg): 43.44 | CD4- CD45- cell subset, relative percentage ([1]; 200 mg/kg): 2.31 | CD8+ CD45+ cell subset, relative percentage ([1]; 200 mg/kg): 12.36 | CD8+ CD45- cell subset, relative percentage ([1]; 200 mg/kg): 0.04 | CD8- CD45+ cell subset, relative percentage ([1]; 200 mg/kg): 62.30 | CD8- CD45- cell subset, relative percentage ([1]; 200 mg/kg): 7.32 | CD45-8 cell subset, relative percentage ([1]; 200 mg/kg): 53.14 | CD45- Th1 cell subset, relative percentage ([1]; 200 mg/kg): 31.64 | NK+ CD3+ cell subset, relative percentage ([1]; 200 mg/kg): 5.27 | NK+ CD3- cell subset, relative percentage ([1]; 200 mg/kg): 8.07 | NK- CD3+ cell subset, relative percentage ([1]; 200 mg/kg): 44.33 | NK- CD3- cell subset, relative percentage ([1]; 200 mg/kg): 42.33 | B cell subset, relative percentage ([1]; 300 mg/kg): 14.60 | CD4+ CD8+ cell subset, relative percentage ([1]; 300 mg/kg): 4.33 | CD4+ CD8- cell subset, relative percentage ([1]; 300 mg/kg): 34.30 | CD4+ CD11+ cell subset, relative percentage ([1]; 300 mg/kg): 0.53 | CD4+ CD11- cell subset, relative percentage ([1]; 300 mg/kg): 20.53 | CD4+ CD45+ cell subset, relative percentage ([1]; 300 mg/kg): 35.00 | CD4+ CD45- cell subset, relative percentage ([1]; 300 mg/kg): 3.67 | CD4- CD8+ cell subset, relative percentage ([1]; 300 mg/kg): 16.17 | CD4- CD8- cell subset, relative percentage ([1]; 300 mg/kg): 45.20 | CD4- CD11+ cell subset, relative percentage ([1]; 300 mg/kg): 2.23 | CD4- CD11- cell subset, relative percentage ([1]; 300 mg/kg): 76.67 | CD4- CD45+ cell subset, relative percentage ([1]; 300 mg/kg): 57.40 | CD4- CD45- cell subset, relative percentage ([1]; 300 mg/kg): 3.97 | CD8+ CD45+ cell subset, relative percentage ([1]; 300 mg/kg): 19.77 | CD8+ CD45- cell subset, relative percentage ([1]; 300 mg/kg): 0.03 | CD8- CD45+ cell subset, relative percentage ([1]; 300 mg/kg): 69.93 | CD8- CD45- cell subset, relative percentage ([1]; 300 mg/kg): 10.30 | CD45-8 cell subset, relative percentage ([1]; 300 mg/kg): 61.63 | CD45- Th1 cell subset, relative percentage ([1]; 300 mg/kg): 38.43 | NK+ CD3+ cell subset, relative percentage ([1]; 300 mg/kg): 9.47 | NK+ CD3- cell subset, relative percentage ([1]; 300 mg/kg): 10.83 | NK- CD3+ cell subset, relative percentage ([1]; 300 mg/kg): 41.10 | NK- CD3- cell subset, relative percentage ([1]; 300 mg/kg): 38.63 | change of relative percentage of CD8+CD45+ (cytotoxic T cells) subset (in words) ([1]; 200 and 300 mg/kg): significant increase | change of relative percentage of NK+CD3+ (NK cells) subset (in words) ([1]; 200 and 300 mg/kg): significant increase | toxicity in vivo (in words) (Toxicity in vivo): No apparent toxicity
